Like-named read-outs stand apart in the source and are kept apart here.
Molecular target: T1, LmjIPCS (inositol phosphorylceramide synthase from L. major) (Leishmania major, UniProt E9AFX2)
T1 sequence (E9AFX2 1-338): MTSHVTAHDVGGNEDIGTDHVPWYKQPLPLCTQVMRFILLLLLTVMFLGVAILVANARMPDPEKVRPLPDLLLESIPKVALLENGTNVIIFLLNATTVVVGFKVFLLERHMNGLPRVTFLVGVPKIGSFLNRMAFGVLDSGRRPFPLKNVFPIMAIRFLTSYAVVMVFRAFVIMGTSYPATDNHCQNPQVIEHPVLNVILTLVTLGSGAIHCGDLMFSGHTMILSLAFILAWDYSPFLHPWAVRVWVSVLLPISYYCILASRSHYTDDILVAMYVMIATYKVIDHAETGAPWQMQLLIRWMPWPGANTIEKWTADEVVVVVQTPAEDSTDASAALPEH
Assay: biochemical
Assay type: biochemical
Parameters: inhibition: dose or concentration left out as unconfirmed
Details: for inhibition at 20000 µM: read-out: 20mM inhibition LmjIPCS; for inhibition: read-out: inhibition LmjIPCS

[1] = screening of NINDS set, sheet Screen 1
[2] = NINDS set screen, single concentration printed as 20mM
[3] = single concentration 20mM as printed, screening of NINDS set, sheet Screen 1

SMILES: C[C@H]1O[C@@H](O[C@H]2[C@@H](O)C[C@H](O[C@H]3[C@@H](O)C[C@H](O[C@H]4CC[C@@]5(C)[C@H](CC[C@@H]6[C@@H]5C[C@@H](O)[C@]5(C)[C@@H](C7=CC(=O)OC7)CC[C@]65O)C4)O[C@@H]3C)O[C@@H]2C)C[C@H](O)[C@@H]1O [DIGOXIN]
- inhibition at 20000 µM: 5.32%

SMILES: CCCCCC1C(=O)CCC1CC(=O)OC (stereo not drawn) [DIHYDROJASMONIC ACID, METHYL ESTER]
- inhibition at 20000 µM: -2%

SMILES: CCCCCC1C(=O)CCC1CC(=O)O (stereo not drawn) [DIHYDROJASMONIC ACID]
- inhibition at 20000 µM: 20%

SMILES: CN[C@@H]1[C@H](O[C@H]2[C@H](O[C@H]3[C@H](O)[C@@H](O)[C@H](NC(=N)N)[C@@H](O)[C@@H]3NC(=N)N)O[C@@H](C)[C@]2(O)CO)O[C@@H](CO)[C@H](O)[C@H]1O [DIHYDROSTREPTOMYCIN]
- inhibition at 20000 µM: 12%

SMILES: COc1ccc([C@@H]2Sc3ccccc3N(CCN(C)C)C(=O)[C@@H]2OC(C)=O)cc1 [DILTIAZEM]
- inhibition: 14%

SMILES: CC1(C)OC(=O)NC1=O [DIMETHADIONE]
- inhibition [1]: 6.6%

SMILES: Cc1c(C(N)=O)cc([N+](=O)[O-])cc1[N+](=O)[O-] [DINITOLMIDE]
- inhibition: 5%

SMILES: COc1ccc(C(=O)c2ccccc2O)c(O)c1 [DIOXYBENZONE]
- inhibition: 11%

SMILES: CC(=O)Oc1ccccc1C(=O)Oc1ccccc1C(=O)O [DIPLOSALSALATE]
- 20mM inhibition LmjIPCS [2]: 67%

SMILES: OCCN(CCO)c1nc(N2CCCCC2)c2nc(N(CCO)CCO)nc(N3CCCCC3)c2n1 [DIPYRIDAMOLE]
- inhibition (NINDS set screen): -11%

SMILES: Cc1c(N(C)CS(=O)(=O)[O-])c(=O)n(-c2ccccc2)n1C.[Na+] [DIPYRONE]
- 20mM inhibition LmjIPCS (NINDS set screen, single concentration 20mM as printed): -7.57%

SMILES: CC[C@H]1OC(=O)[C@H](C)[C@@H](O[C@H]2C[C@@](C)(OC)[C@@H](O)[C@H](C)O2)[C@H](C)[C@@H](O[C@@H]2O[C@H](C)C[C@H](N(C)C)[C@H]2O)[C@](C)(O)C[C@@H](C)[C@@H]2N[C@@H](COCCOC)O[C@H]([C@H]2C)[C@]1(C)O [DIRITHROMYCIN]
- 20mM inhibition LmjIPCS: 47%

SMILES: CC(C)N(CCC(C(N)=O)(c1ccccc1)c1ccccn1)C(C)C (stereo not drawn) [DISOPYRAMIDE]
- inhibition: 10%

SMILES: NCCc1ccc(O)c(O)c1 [DOPAMINE]
- inhibition at 20000 µM: -1.1%

SMILES: C[C@H]1c2cccc(O)c2C(=O)C2=C(O)[C@]3(O)C(=O)C(C(N)=O)=C(O)[C@@H](N(C)C)[C@@H]3[C@@H](O)[C@@H]21 [DOXYCYCLINE]
- inhibition (NINDS set screen): 30%

SMILES: CN(C)CCOC(C)(c1ccccc1)c1ccccn1 (stereo not drawn) [DOXYLAMINE]
- inhibition: 9%

SMILES: O=C(CCCN1CC=C(n2c(=O)[nH]c3ccccc32)CC1)c1ccc(F)cc1 [DROPERIDOL]
- 20mM inhibition LmjIPCS: 56%

SMILES: OCC(O)CN1CCN(c2ccccc2)CC1 (stereo not drawn) [DROPROPIZINE]
- inhibition at 20000 µM: 18%

SMILES: CCCCOc1ccc(C(=O)CCN2CCCCC2)cc1 [DYCLONINE]
- 20mM inhibition LmjIPCS: 61%

SMILES: Cn1c(=O)c2c(ncn2CC(O)CO)n(C)c1=O (stereo not drawn) [DYPHYLLINE]
- inhibition (NINDS set screen): -5.31%

SMILES: O=c1c2ccccc2[se]n1-c1ccccc1 [EBSELEN]
- 20mM inhibition LmjIPCS: 42%

SMILES: CC[N+](C)(C)c1cccc(O)c1 [EDROPHONIUM]
- inhibition at 20000 µM: 12%

SMILES: CCCCCCCC/C=C/CCCCCCCCOP(=O)([O-])OCC[N+](C)(C)C [ELAIDYLPHOSPHOCHOLINE]
- inhibition (NINDS set screen): -7%

SMILES: O=c1oc2c(O)c(O)cc3c(=O)oc4c(O)c(O)cc1c4c23 [ELLAGIC ACID]
- inhibition (NINDS set screen): 22%

SMILES: CC[C@H]1CN2CCc3cc(OC)c(OC)cc3[C@@H]2C[C@@H]1C[C@H]1NCCc2cc(OC)c(OC)cc21 [EMETINE]
- inhibition at 20000 µM: 11%

SMILES: O=C(O)c1cc(O)c2c(c1)C(=O)c1cc(O)cc(O)c1C2=O [EMODIC ACID]
- inhibition (NINDS set screen): 14%

SMILES: CCn1cc(C(=O)O)c(=O)c2cc(F)c(N3CCNCC3)nc21 [ENOXACIN]
- 20mM inhibition LmjIPCS [2]: 56%

SMILES: CN[C@@H](C)[C@H](O)c1ccccc1 [EPHEDRINE (1R,2S)]
- 20mM inhibition LmjIPCS: 8%

SMILES: C=C1CC[C@H](O)C/C1=C/C=C1\CCC[C@]2(C)[C@@H]([C@H](C)/C=C/[C@H](C)C(C)C)CC[C@@H]12 [ERGOCALCIFEROL]
- inhibition: -1.77%

SMILES: C[C@@H](CO)NC(=O)[C@@H]1C=C2c3cccc4[nH]cc(c34)C[C@H]2N(C)C1 [ERGONOVINE]
- inhibition at 20000 µM: 6.33%

SMILES: CCC(=O)O[C@H]1[C@H](O[C@@H]2[C@@H](C)[C@H](O[C@H]3C[C@@](C)(OC)[C@@H](O)[C@H](C)O3)[C@@H](C)C(=O)O[C@H](CC)[C@@](C)(O)[C@H](O)[C@@H](C)C(=O)[C@H](C)C[C@@]2(C)O)O[C@H](C)C[C@@H]1N(C)C [ERYTHROMYCIN ESTOLATE]
- inhibition (NINDS set screen): 22%

SMILES: CNC(=O)Oc1ccc2c(c1)[C@]1(C)CCN(C)[C@@H]1N2C [ESERINE]
- 20mM inhibition LmjIPCS: 9%

SMILES: CC(=O)Oc1ccc2c(c1)CC[C@@H]1[C@@H]2CC[C@]2(C)[C@@H](O)CC[C@@H]12 [ESTRADIOL ACETATE]
- 20mM inhibition LmjIPCS [2]: 68%

SMILES: CC(=O)Oc1ccc2c(c1)CC[C@@H]1[C@@H]2CC[C@]2(C)[C@@H](OC(C)=O)CC[C@@H]12 [ESTRADIOL DIACETATE]
- 20mM inhibition LmjIPCS [3]: 1.59%

SMILES: COc1ccc2c(c1)CC[C@@H]1[C@@H]2CC[C@]2(C)[C@@H](O)CC[C@@H]12 [ESTRADIOL METHYL ETHER]
- 20mM inhibition LmjIPCS: 40%

SMILES: CCCCC(=O)O[C@H]1CC[C@H]2[C@@H]3CCc4cc(O)ccc4[C@H]3CC[C@]12C [ESTRADIOL VALERATE]
- 20mM inhibition LmjIPCS: 66%

SMILES: C[C@]12CCC3c4ccc(OS(=O)(=O)[O-])cc4CCC3C1CC[C@H]2O.[Na+] (stereo partly drawn) [ESTRADIOL-3-SULFATE, SODIUM SALT]
- 20mM inhibition LmjIPCS: 5.4%

SMILES: C[C@]12CC[C@@H]3c4ccc(O)cc4CC[C@H]3[C@@H]1CC[C@@H]2O [ESTRADIOL]
- inhibition at 20000 µM: -5.65%

SMILES: CC12CCC3c4ccc(OCc5ccccc5)cc4CCC3C1C[C@@H](O)[C@@H]2O (stereo partly drawn) [ESTRIOL BENZYL ETHER]
- 20mM inhibition LmjIPCS [2]: 42%

SMILES: COc1ccc2c(c1)CC[C@@H]1[C@@H]2CC[C@]2(C)[C@@H](O)[C@H](O)C[C@@H]12 [ESTRIOL METHYL ETHER]
- 20mM inhibition LmjIPCS [3]: 8%

SMILES: C[C@]12CC[C@@H]3c4ccc(O)cc4CC[C@H]3[C@@H]1C[C@@H](O)[C@@H]2O [ESTRIOL]
- inhibition: 1.42%

SMILES: CC(=O)Oc1ccc2c(c1)CCC1C2CC[C@]2(C)C(=O)CCC12 (stereo partly drawn) [ESTRONE ACETATE]
- inhibition [1]: 8.56%

SMILES: C[C@]12CCC3c4ccc(OC(=O)CCC(=O)O)cc4CCC3C1CCC2=O (stereo partly drawn) [ESTRONE HEMISUCCINATE]
- 20mM inhibition LmjIPCS: 12%

SMILES: C[C@]12CC[C@@H]3c4ccc(O)cc4CC[C@H]3[C@@H]1CCC2=O [ESTRONE]
- inhibition at 20000 µM: 1.15%

SMILES: O=C(Cn1ccnc1[N+](=O)[O-])NCCO [ETANIDAZOLE]
- inhibition at 20000 µM: 3.58%

SMILES: CC[C@@H](CO)NCCN[C@@H](CC)CO [ETHAMBUTOL]
- inhibition: -1.19%

SMILES: CCOc1ccc(Cc2nccc3cc(OCC)c(OCC)cc23)cc1OCC [ETHAVERINE]
- inhibition (NINDS set screen): -7%

SMILES: C#C[C@]1(O)CC[C@H]2[C@@H]3CCc4cc(O)ccc4[C@H]3CC[C@@]21C [ETHINYL ESTRADIOL]
- inhibition (NINDS set screen): -11%

SMILES: CCc1cc(C(N)=S)ccn1 [ETHIONAMIDE]
- inhibition at 20000 µM: -5.39%

SMILES: C#C[C@]1(O)CC[C@H]2[C@@H]3CCC4=CC(=O)CC[C@]4(C)[C@H]3CC[C@@]21C [ETHISTERONE]
- inhibition at 20000 µM: 2.43%

SMILES: CCN(CC)C(C)CN1c2ccccc2Sc2ccccc21 (stereo not drawn) [ETHOPROPAZINE]
- 20mM inhibition LmjIPCS: 63%

SMILES: CCC1(C)CC(=O)NC1=O (stereo not drawn) [ETHOSUXIMIDE]
- inhibition [1]: 6%

SMILES: CCC(N)C(O)c1ccc(O)c(O)c1 (stereo not drawn) [ETHYLNOREPINEPHRINE]
- inhibition at 20000 µM: -9%

SMILES: CCc1cccc2c3c([nH]c12)C(CC)(CC(=O)O)OCC3 (stereo not drawn) [ETODOLAC]
- inhibition: 13%

SMILES: CC1CC(OC(=O)C(O)c2ccccc2)CC(C)(C)N1C (stereo not drawn) [EUCATROPINE]
- inhibition [1]: 8%

SMILES: C=CCc1ccc(O)c(OC)c1 [EUGENOL]
- inhibition: 7%

SMILES: CCCCCCOc1ccccc1C(N)=O [EXALAMIDE]
- inhibition [1]: 8%

SMILES: O=C1[C@H](CC[C@H](O)c2ccc(F)cc2)[C@@H](c2ccc(O)cc2)N1c1ccc(F)cc1 [EZETIMIBE]
- inhibition (NINDS set screen): 23%

SMILES: CC(=O)OCC(CCn1cnc2cnc(N)nc21)COC(C)=O [FAMCICLOVIR]
- inhibition at 20000 µM: 1.36%

SMILES: NC(N)=Nc1nc(CSCCC(N)=NS(N)(=O)=O)cs1 [FAMOTIDINE]
- inhibition at 20000 µM: 14%

SMILES: COC(=O)Nc1nc2ccc(Sc3ccccc3)cc2[nH]1 [FENBENDAZOLE]
- inhibition: 20%

SMILES: O=C(O)CCC(=O)c1ccc(-c2ccccc2)cc1 [FENBUFEN]
- inhibition at 20000 µM: 12%

SMILES: CCC(C(N)=O)c1ccccc1 (stereo not drawn) [FENBUTYRAMIDE]
- inhibition [1]: 9%

SMILES: CC(C)OC(=O)C(C)(C)Oc1ccc(C(=O)c2ccc(Cl)cc2)cc1 [FENOFIBRATE]
- 20mM inhibition LmjIPCS: 58%

SMILES: CC(C(=O)O)c1cccc(Oc2ccccc2)c1 (stereo not drawn) [FENOPROFEN]
- inhibition at 20000 µM: 6%

SMILES: CC(Cc1ccc(O)cc1)NCC(O)c1cc(O)cc(O)c1 (stereo not drawn) [FENOTEROL]
- inhibition at 20000 µM: 15%

SMILES: O=C1NCC2(CCN(CCc3ccccc3)CC2)O1 [FENSPIRIDE]
- 20mM inhibition LmjIPCS [2]: 47%

SMILES: O=C(COc1ccc(Cl)cc1)N1CCN(Cc2ccc3c(c2)OCO3)CC1 [FIPEXIDE]
- inhibition [1]: 2.64%

SMILES: O=c1[nH]c(=O)n([C@H]2C[C@H](O)[C@@H](CO)O2)cc1F [FLOXURIDINE]
- inhibition (NINDS set screen): -2.28%

SMILES: CC(=O)OCC(=O)[C@@]1(O)CC[C@H]2[C@@H]3CCC4=CC(=O)CC[C@]4(C)[C@@]3(F)[C@@H](O)C[C@@]21C [FLUDROCORTISONE ACETATE]
- inhibition at 20000 µM: 4.65%

SMILES: O=C(O)c1ccccc1Nc1cccc(C(F)(F)F)c1 [FLUFENAMIC ACID]
- inhibition at 20000 µM: -16%

SMILES: CC1CCc2cc(F)cc3c(=O)c(C(=O)O)cn1c23 (stereo not drawn) [FLUMEQUINE]
- inhibition at 20000 µM: 5%
